In PubChem BioAssay AID1259407 (Chemical Carcinogenesis Research Information System (CCRIS), 2018):
Activity calls are given as the source filed them. The rule behind the calls is not given here.

System: CCRIS mutagenicity, Ames/micronucleus/aberration tests
Test: CCRIS mutagenicity studies
[1] = Test System: AMES SALMONELLA TYPHIMURIUM, Strain/Indicator: TA97, Metabolic Activation: NONE, Method: STANDARD PLATE
[2] = Test System: AMES SALMONELLA TYPHIMURIUM, Strain/Indicator: TA98, Metabolic Activation: NONE, Method: STANDARD PLATE
[3] = Test System: AMES SALMONELLA TYPHIMURIUM, Strain/Indicator: TA100, Metabolic Activation: NONE, Method: STANDARD PLATE
[4] = Test System: AMES SALMONELLA TYPHIMURIUM, Strain/Indicator: TA102, Metabolic Activation: NONE, Method: STANDARD PLATE
[5] = Test System: AMES SALMONELLA TYPHIMURIUM, Strain/Indicator: TA98, Metabolic Activation: RAT, LIVER, S-9, AROCLOR 1254, Method: STANDARD PLATE
[6] = Test System: AMES SALMONELLA TYPHIMURIUM, Strain/Indicator: TA100, Metabolic Activation: RAT, LIVER, S-9, AROCLOR 1254, Method: STANDARD PLATE

CC(=O)N1CCc2cc([N+](=O)[O-])ccc21
mutagenic call (End Point: IN VITRO CHROMOSOMAL ABERRATIONS, Test System: CHL CELLS, Metabolic Activation: RAT, LIVER, S-9, SODIUM PHENOBARBITAL AND 5,6-BENZOFLAVONE): inactive; negative

COC1=CC(=O)OC(/C=C/c2ccccc2)C1 (stereo not given)
mutagenic call (Test System: L5178Y ( tk+/tk-), Metabolic Activation: Human, Liver, S-9, Method: Suspension/plate): inactive; negative

COc1cccc2c1C(=N)c1c(O)c3c(c(O)c1C2=O)C[C@@](O)(C(C)=O)C[C@@H]3O[C@H]1C[C@H](N)[C@H](O)[C@H](C)O1
mutagenic call (Test System: CHINESE HAMSTER V-79, Strain/Indicator: V-79 (HGPRT)/6-THIOGUANINE, Metabolic Activation: NONE): active; positive

CC(=O)c1cc2c(cc1C)C(C)(C)C(C)CC2(C)C (stereo not given)
mutagenic call (Test System: AMES SALMONELLA TYPHIMURIUM, Strain/Indicator: TA97, Metabolic Activation: NONE, Method: PREINCUBATION): inactive; negative | mutagenic call [1]: inactive; negative | mutagenic call (Test System: AMES SALMONELLA TYPHIMURIUM, Strain/Indicator: TA97, Metabolic Activation: RAT LIVER S-9, AROCLOR 1254, Method: STANDARD PLATE): inactive; negative | mutagenic call (Test System: AMES SALMONELLA TYPHIMURIUM, Strain/Indicator: TA97, Metabolic Activation: RAT LIVER S-9, PHENOBARBITAL, BETA-NAPHTHOFLAVONE, Method: PREINCUBATION): inactive; negative | mutagenic call (Test System: AMES SALMONELLA TYPHIMURIUM, Strain/Indicator: TA97, Metabolic Activation: RAT LIVER S-9, PHENOBARBITAL, BETA-NAPHTHOFLAVONE, Method: STANDARD PLATE): inactive; negative | mutagenic call (Test System: AMES SALMONELLA TYPHIMURIUM, Strain/Indicator: TA98, Metabolic Activation: NONE, Method: PREINCUBATION): inactive; negative | mutagenic call [2]: inactive; negative | mutagenic call (Test System: AMES SALMONELLA TYPHIMURIUM, Strain/Indicator: TA98, Metabolic Activation: RAT LIVER S-9, AROCLOR 1254, Method: STANDARD PLATE): inactive; negative | mutagenic call (Test System: AMES SALMONELLA TYPHIMURIUM, Strain/Indicator: TA98, Metabolic Activation: RAT LIVER S-9, PHENOBARBITAL, BETA-NAPHTHOFLAVONE, Method: PREINCUBATION): inactive; negative | mutagenic call (Test System: AMES SALMONELLA TYPHIMURIUM, Strain/Indicator: TA98, Metabolic Activation: RAT LIVER S-9, PHENOBARBITAL, BETA-NAPHTHOFLAVONE, Method: STANDARD PLATE): inactive; negative | mutagenic call (Test System: AMES SALMONELLA TYPHIMURIUM, Strain/Indicator: TA100, Metabolic Activation: NONE, Method: PREINCUBATION): inactive; negative | mutagenic call [3]: inactive; negative | mutagenic call (Test System: AMES SALMONELLA TYPHIMURIUM, Strain/Indicator: TA100, Metabolic Activation: RAT LIVER S-9, AROCLOR 1254, Method: STANDARD PLATE): inactive; negative | mutagenic call (Test System: AMES SALMONELLA TYPHIMURIUM, Strain/Indicator: TA100, Metabolic Activation: RAT LIVER S-9, PHENOBARBITAL, BETA-NAPHTHOFLAVONE, Method: PREINCUBATION): inactive; negative | mutagenic call (Test System: AMES SALMONELLA TYPHIMURIUM, Strain/Indicator: TA100, Metabolic Activation: RAT LIVER S-9, PHENOBARBITAL, BETA-NAPHTHOFLAVONE, Method: STANDARD PLATE): inactive; negative | mutagenic call (Test System: AMES SALMONELLA TYPHIMURIUM, Strain/Indicator: TA102, Metabolic Activation: NONE, Method: PREINCUBATION): inactive; negative | mutagenic call [4]: inactive; negative | mutagenic call (Test System: AMES SALMONELLA TYPHIMURIUM, Strain/Indicator: TA102, Metabolic Activation: RAT LIVER S-9, AROCLOR 1254, Method: STANDARD PLATE): inactive; negative | mutagenic call (Test System: AMES SALMONELLA TYPHIMURIUM, Strain/Indicator: TA102, Metabolic Activation: RAT LIVER S-9, PHENOBARBITAL, BETA-NAPHTHOFLAVONE, Method: PREINCUBATION): inactive; negative | mutagenic call (Test System: AMES SALMONELLA TYPHIMURIUM, Strain/Indicator: TA102, Metabolic Activation: RAT LIVER S-9, PHENOBARBITAL, BETA-NAPHTHOFLAVONE, Method: STANDARD PLATE): inactive; negative | mutagenic call (Test System: AMES SALMONELLA TYPHIMURIUM, Strain/Indicator: TA1535, Metabolic Activation: NONE, Method: PREINCUBATION): inactive; negative | mutagenic call (Test System: AMES SALMONELLA TYPHIMURIUM, Strain/Indicator: TA1535, Metabolic Activation: NONE, Method: STANDARD PLATE): inactive; negative | mutagenic call (Test System: AMES SALMONELLA TYPHIMURIUM, Strain/Indicator: TA1535, Metabolic Activation: RAT LIVER S-9, PHENOBARBITAL, BETA-NAPHTHOFLAVONE, Method: PREINCUBATION): inactive; negative | mutagenic call (Test System: AMES SALMONELLA TYPHIMURIUM, Strain/Indicator: TA1535, Metabolic Activation: RAT LIVER S-9, PHENOBARBITAL, BETA-NAPHTHOFLAVONE, Method: STANDARD PLATE): inactive; negative | mutagenic call (Test System: AMES SALMONELLA TYPHIMURIUM, Strain/Indicator: TA1537, Metabolic Activation: NONE, Method: PREINCUBATION): inactive; negative | mutagenic call (Test System: AMES SALMONELLA TYPHIMURIUM, Strain/Indicator: TA1537, Metabolic Activation: NONE, Method: STANDARD PLATE): inactive; negative | mutagenic call (Test System: AMES SALMONELLA TYPHIMURIUM, Strain/Indicator: TA1537, Metabolic Activation: RAT LIVER S-9, PHENOBARBITAL, BETA-NAPHTHOFLAVONE, Method: PREINCUBATION): inactive; negative | mutagenic call (Test System: AMES SALMONELLA TYPHIMURIUM, Strain/Indicator: TA1537, Metabolic Activation: RAT LIVER S-9, PHENOBARBITAL, BETA-NAPHTHOFLAVONE, Method: STANDARD PLATE): inactive; negative | mutagenic call (Test System: ESCHERICHIA COLI, Strain/Indicator: WP2 UVR A, Metabolic Activation: NONE, Method: PREINCUBATION): inactive; negative | mutagenic call (Test System: ESCHERICHIA COLI, Strain/Indicator: WP2 UVR A, Metabolic Activation: NONE, Method: STANDARD PLATE): inactive; negative | mutagenic call (Test System: ESCHERICHIA COLI, Strain/Indicator: WP2 UVR A, Metabolic Activation: RAT LIVER S-9, PHENOBARBITAL, BETA-NAPHTHOFLAVONE, Method: PREINCUBATION): inactive; negative | mutagenic call (Test System: ESCHERICHIA COLI, Strain/Indicator: WP2 UVR A, Metabolic Activation: RAT LIVER S-9, PHENOBARBITAL, BETA-NAPHTHOFLAVONE, Method: STANDARD PLATE): inactive; negative | mutagenic call (Test System: UDS RAT HEPATOCYTES, Metabolic Activation: NONE, Method: NET NUCLEAR GRAIN COUNT): inactive; negative

CCOCC=O
mutagenic call (Test System: AMES SALMONELLA TYPHIMURIUM, Strain/Indicator: TA97A, Metabolic Activation: NONE, Method: STANDARD PLATE): inactive; negative | mutagenic call (Test System: AMES SALMONELLA TYPHIMURIUM, Strain/Indicator: TA97A, Metabolic Activation: RAT, LIVER, S-9, AROCLOR 1254, Method: STANDARD PLATE): inactive; negative | mutagenic call [2]: inactive; negative | mutagenic call [5]: inactive; negative | mutagenic call [3]: inactive; negative | mutagenic call [6]: inactive; negative | mutagenic call [4]: inactive; negative | mutagenic call (Test System: AMES SALMONELLA TYPHIMURIUM, Strain/Indicator: TA102, Metabolic Activation: RAT, LIVER, S-9, AROCLOR 1254, Method: STANDARD PLATE): inactive; negative

Clc1ccc(N=Nc2ccc(Cl)c(Cl)c2)cc1Cl
mutagenic call [1]: inactive; negative | mutagenic call (Test System: AMES SALMONELLA TYPHIMURIUM, Strain/Indicator: TA97, Metabolic Activation: RAT, LIVER, S-9, AROCLOR 1254, Method: STANDARD PLATE): inactive; negative | mutagenic call [2]: inactive; negative | mutagenic call [5]: inactive; negative | mutagenic call [3]: inactive; negative | mutagenic call [6]: inactive; negative | mutagenic call (Test System: AMES SALMONELLA TYPHIMURIUM, Strain/Indicator: TA104, Metabolic Activation: NONE, Method: STANDARD PLATE): inactive; negative | mutagenic call (Test System: AMES SALMONELLA TYPHIMURIUM, Strain/Indicator: TA104, Metabolic Activation: RAT, LIVER, S-9, AROCLOR 1254, Method: STANDARD PLATE): inactive; negative | mutagenic call (Test System: CHINESE HAMSTER OVARY, Strain/Indicator: CHO-K1-BH4 (HGPRT), Metabolic Activation: NONE): inactive; negative | mutagenic call (Test System: CHINESE HAMSTER OVARY, Strain/Indicator: CHO-K1-BH4 (HGPRT), Metabolic Activation: RAT, LIVER, S-9, AROCLOR 1254): inactive; negative | mutagenic call (Test System: UDS RODENT HEPATOCYTES, Strain/Indicator: THY INCORP (NON-S-PHASE), Method: LIQUID SCINTILLATION COUNTING): active; positive
